Data as given in US20240148709A1, “METHODS OF TREATING EYE PAIN AND EYE DISORDERS” (Aisa Pharma, Inc., priority 2022, published 2024).
Marks after values point to notes of the source that are not given here.

System: participants with SSc-RP
Experiment: Raynaud's attack diary endpoints (frequency, duration, severity, pain, RCS), Phase 2a study Part A
Type: in vivo, human
Procedure: Part A—double-blind, placebo-controlled, parallel-group, dose selection, will assess the safety and efficacy of two doses of cilnidipine (10 mg and 20 mg), alone and in combination with tadalafil. A total of 36 participants will be randomized to one of six prespecified treatment arms. Refer to FIG. 1 for treatment arms in Part A of the study. Dosing last for 12 (±2) days in which participants will self-administer daily doses of assigned treatment in the morning. Each participant will take one capsule and one tablet to blind the active therapy being received.
During screening, the Diary will collect the following data to confirm eligibility and serve as the baseline measure for efficacy endpoints should the participant be randomized: • Number of daily Raynaud's attacks • Duration of each attack • Symptoms of each attack, including numbness, pain, tingling, color changes • Severity of each attack (all symptoms of the attack to be considered including tingling, numbness, pain, color changes) • Location of participant during each attack (inside/outside) • Pain score of each attack-using 11-point Likert scale, a validated pain scale which can be used to record intensity of pain. • Daily RCS— a validated outcome measure used to assess the level of difficulty experienced due to RP each day.
The relevant metrics measured by this tool daily are: • Study medication • SSc-RP symptoms (Reporting an attack including duration of attack) • Severity of the attack considering all symptoms of the attack e.g. tingling, numbness, pain, color changes (VAS 0-10 cm scale) • Participant's location at the time of the attack (inside home/outside home) • Selecting symptoms experienced during the attack (tingling, numbness, pain, color changes, other) • Pain rating during the attack (11-point Likert scale) • The RCS based on how much difficulty participants had with Raynaud's today, how many attacks the participant had, and how long they lasted. Participants will also be asked to consider how much pain, numbness, or other symptoms the Raynaud's caused in fingers (including painful sores), and how much the Raynaud's alone affected the use of hands today (VAS 0-10 cm scale).
Percent change from baseline evaluation for frequency of weekly RP attacks will be the primary efficacy endpoint. Data collected in the last 7 days of each dosing period will be used for this analysis. Screening assessments will be used as baseline for the analysis of all periods. No multiple comparison adjustment will be used to control alpha for the multiple comparisons. Mixed effects model will be used for analysis of the primary endpoint according to the crossover design. Other efficacy endpoints of continuous variables will be analyzed using similar methodology. For nominal data, chi-square tests will be applied. Generalized Estimating Equations method will be used, as appropriate, for adjusting for potential confounding factors. In addition, the final analysis will assess whether in this study of severe Raynaud's disease participants, the minimally important difference, previously concluded of 14-15 points on the 100 point RCS scale has been achieved in the cilnidipine dose group. It also will record the percentage of participants achieving a PASS (34 point difference from baseline on a 0-100 VAS) in each treatment group.

[1] = cilnidipine 10 mg and/or tadalafil 5 mg arms
[2] = cilnidipine 20 mg arms (alone or + tadalafil 5 mg)

## COCCOC(=O)C1=C(C)NC(C)=C(C(=O)OC/C=C/c2ccccc2)C1c1cccc([N+](=O)[O-])c1 (centres unmarked) [Cilnidipine, cilnidipine]
Cilnidipine 20 mg (n = 1)
  Subgroup Baseline RCS <3.5, % change: baseline −42%
Cilnidipine 20 mg (n = 2)
  Subgroup Baseline RCS >3.5-7.5, % change: baseline −43%
  Subgroup attack frequency, <10 baseline, % change: baseline −29%
  Subgroup attack frequency, >10 baseline, % change: baseline −50%
Cilnidipine 20 mg (n = 3)
  Average Raynaud's Pain, % change: 12%
  Daily RCS Change: −28%
  Duration, % change: −20%
  Mean % reduction in RCS: 27.9%
  Mean % reduction in duration: 20.0%
  Mean % reduction in pain: −11.8%
  Mean % reduction in severity: 35.5%
  Mean % reduction of weekly attacks: 43%
  Severity, % change: −36%
  Weekly attack frequency, % change: −43%
  Weekly attack frequency, % change, if baseline RCS <3.5: −42%
Pooled Cilnidipine (n = 1)
  Subgroup Baseline RCS 3.5-7.5, % change: baseline −86%
Pooled Cilnidipine (n = 2)
  Subgroup attack frequency, <10 baseline, % change: baseline −55%
  Subgroup attack frequency, >10 baseline, % change: baseline −28%
Pooled Cilnidipine (n = 3)
  Daily RCS Change: 12% (n = 3)
  Subgroup Baseline RCS <3.5, % change: baseline −27%
Pooled Cilnidipine (n = 7)
  Average Raynaud's Pain, % change: −27%
  Duration, % change: 20%
  Severity, % change: −16%
  Weekly attack frequency, % change: −41%
  Weekly attack frequency, % change, if baseline RCS <3.5: −27%
Both doses (10 and 20 mg)
  DSMB finding on Raynaud's endpoints: effective at reducing Raynaud's endpoints
[1]
  Average Pain Score Change From Baseline [Mean (SD)]: 0.47 (0.558)
  Average Pain Score Percent Change from Baseline [Mean (SD)]: 11.76 (27.478)† %
  Average Pain Score [Mean (SD)] after treatment (Raynaud's pain): 2.82 (2.268)
[2]
  Average Pain Score Change From Baseline [Mean (SD)]: −0.47 (2.025)
  Average Pain Score Percent Change from Baseline [Mean (SD)]: −26.89 (89.725)* %
  Average Pain Score [Mean (SD)] after treatment (Raynaud's pain): 1.28 (1.993)

## CN1CC(=O)N2[C@H](c3ccc4c(c3)OCO4)c3[nH]c4ccccc4c3C[C@@H]2C1=O [Tadalafil, tadalafil]
[1]
  Average Pain Score Change From Baseline [Mean (SD)]: 0.37 (2.219)
  Average Pain Score Percent Change from Baseline [Mean (SD)]: 17.20 (64.838) %
  Average Pain Score [Mean (SD)] after treatment (Raynaud's pain): 5.84 (4.768)
